Molecules are shown by their SMILES.

This experiment has as its target Gastrin/cholecystokinin type B receptor (Cavia porcellus). Description: Inhibition of ligand binding to Cholecystokinin type B receptor from guinea pig cortical membrane.
`CCCN1C(=O)[C@H](NC(=O)Nc2cccc(C)c2)N=C([C@H]2CC(C)(C)CCN2)c2ccccc21` [1-[(R)-5-((R)-4,4-Dimethyl-piperidin-2-yl)-2-oxo-1-propyl-2,3-dihydro-1H-benzo[e][1,4]diazepin-3-yl]-3-m-tolyl-urea] showed an IC50 of 1.5 nM.

On to `CCCN1C(=O)[C@H](NC(=O)Nc2cccc(C)c2)N=C([C@@H]2CCCCN2)c2ccccc21` [1-((R)-2-Oxo-5-(S)-piperidin-2-yl-1-propyl-2,3-dihydro-1H-benzo[e][1,4]diazepin-3-yl)-3-m-tolyl-urea], for which the IC50 turned out to be 41 nM. This IC50 is about 27-fold higher than that of the molecule before. For the molecule `CCN(CC)C(=O)CN1C(=O)[C@H](NC(=O)Nc2cccc(C)c2)N=C(c2cccc[n+]2C)c2ccccc21` [2-[(R)-1-Diethylcarbamoylmethyl-2-oxo-3-(3-m-tolyl-ureido)-2,3-dihydro-1H-benzo[e][1,4]diazepin-5-yl]-1-methyl-pyridinium; iodide], the IC50 came out at 18 nM. This IC50 is about 2.3-fold lower than that of the molecule before. As for `CCCN1C(=O)[C@H](NC(=O)Nc2cccc(C)c2)N=C([C@H]2CCCCN2)c2ccccc21` [1-((R)-2-Oxo-5-(R)-piperidin-2-yl-1-propyl-2,3-dihydro-1H-benzo[e][1,4]diazepin-3-yl)-3-m-tolyl-urea], the figure is 36 nM; as for `Cc1cccc(NC(=O)N[C@@H]2N=C([C@H]3CCC(C)(C)CCN3)c3ccccc3N(C)C2=O)c1` [1-[(R)-5-((R)-5,5-Dimethyl-azepan-2-yl)-1-methyl-2-oxo-2,3-dihydro-1H-benzo[e][1,4]diazepin-3-yl]-3-m-tolyl-urea], 12 nM; as for `CCCN1C(=O)[C@H](NC(=O)Nc2cccc(C)c2)N=C([C@H]2CCC(C)(C)CCN2C)c2ccccc21` [1-[(R)-2-Oxo-1-propyl-5-((R)-1,5,5-trimethyl-azepan-2-yl)-2,3-dihydro-1H-benzo[e][1,4]diazepin-3-yl]-3-m-tolyl-urea], 26 nM.

`CCCN1C(=O)[C@H](NC(=O)Nc2cccc(C)c2)N=C([C@H]2CCCCN2C)c2ccccc21` [1-[(R)-5-((R)-1-Methyl-piperidin-2-yl)-2-oxo-1-propyl-2,3-dihydro-1H-benzo[e][1,4]diazepin-3-yl]-3-m-tolyl-urea]: the IC50 is 54 nM.

A word on the IC50: it is the concentration at which inhibition is half-maximal. Read a low IC50 as inhibition by little substance.

These data come from BindingDB's records for doi:10.1021/jm9608523 (Merck Sharp & Dohme Research Laboratories, 1997).
